Values belong to the molecule of their own block, whether it stands above or below them.
What was measured:
PRMT5/MEP50 = PRMT5/MEP50 (Homo sapiens, UniProt O14744); assay: PRMT5 activity inhibition, AlphaLISA assay; assay type: biochemical; conditions: PRMT5/MEP50 with biotinylated histone tail, FIG. 2A
Description: PMRT5 inhibition in HEK 293 WT cells was determined by AlphaLISA® assay (PerkinElmer®) according to manufacturer's instructions. The biotinylated Histone 4 […] histone tail was incubated with PRMT5/MEP50 and inventive bifunctional compounds 1-9, cereblon-based bifunctional compound PRMT5-58, PRMT5 inhibitors EPZ15666 and LLY-283 and RPN13 inhibitor RA190. Then the H4R3symetric Me2 antibody coated beads together with streptavidin beads were incubated together. Assays were processed by EnVision® multimode plate reader (PerkinElmer®).

A427 cells = assay: Cell-proliferation assay (CellTiter-Glo 2.0) in A427 cells; assay type: cell-based; conditions: FIG. 3A
Description: (§1) Inventive bifunctional compounds 1 and 2 were tested in the A427 (anon-small cell lung cancer (NSCLC) cell line) and H661(human lung large cell carcinoma) cells. CellTiter-Glo® 2.0 Cell Viability Assay (Promega™) was used to measure cell growth (proliferation) inhibition and to report the ATP level reduction in cells after treatment with the bifunctional compounds.

H661 cells = assay: Cell-proliferation assay (CellTiter-Glo 2.0) in H661 cells; assay type: cell-based, human; conditions: FIG. 3B
Description: as §1

HL60 cells = assay: Immunoblot analysis of HL60 cells, blotted targets; assay type: cell-based; conditions: FIG. 4A
Description: FIG. 4A is an image showing an immunoblot analysis of HL60 cells treated with different concentrations (μM) of inventive bifunctional compound 13 for 24 hours and 48 hours.
(§2) Protein lysates were subjected to immunoblot analysis using anti-Rpn13, anti-betaActin, anti-H4R3Me2s, anti-H3, anti-RPN1 and anti-RPN10.

RPN13 = molecular target: T1, RPN13 (Homo sapiens, UniProt Q16186); assay: Immunoblot analysis of HL60 cells, RPN13 degradation; assay type: cell-based; conditions: 24 hours, FIG. 4B
T1 construct: endogenous in cells; host or cells: HL60
Description: (§3) FIG. 4B is an image showing an immunoblot analysis of HL60 cells treated with different concentrations (μM) of inventive bifunctional compound 14 for 24 hours.
as §2

PRMT5 = molecular target: T2, PRMT5 (Homo sapiens, UniProt O14744); assay: Immunoblot analysis of HL60 cells, PRMT5 degradation; assay type: cell-based; conditions: 24 hours, FIG. 4B
T2 construct: endogenous in cells; host or cells: HL60
Description: as §3, §2

T1 sequence (Q16186 whole entry): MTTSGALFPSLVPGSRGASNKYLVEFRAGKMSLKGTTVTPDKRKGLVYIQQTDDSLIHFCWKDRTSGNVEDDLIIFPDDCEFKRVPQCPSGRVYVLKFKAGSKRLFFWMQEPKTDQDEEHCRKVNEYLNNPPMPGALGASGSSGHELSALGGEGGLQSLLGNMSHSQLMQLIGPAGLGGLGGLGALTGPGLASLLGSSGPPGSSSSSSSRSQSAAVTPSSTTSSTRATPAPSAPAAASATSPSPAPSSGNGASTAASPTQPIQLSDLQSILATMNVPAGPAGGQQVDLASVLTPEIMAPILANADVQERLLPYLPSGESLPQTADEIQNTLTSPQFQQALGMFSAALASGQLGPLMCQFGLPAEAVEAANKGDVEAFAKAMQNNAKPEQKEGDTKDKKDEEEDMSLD
T2 sequence (O14744 whole entry): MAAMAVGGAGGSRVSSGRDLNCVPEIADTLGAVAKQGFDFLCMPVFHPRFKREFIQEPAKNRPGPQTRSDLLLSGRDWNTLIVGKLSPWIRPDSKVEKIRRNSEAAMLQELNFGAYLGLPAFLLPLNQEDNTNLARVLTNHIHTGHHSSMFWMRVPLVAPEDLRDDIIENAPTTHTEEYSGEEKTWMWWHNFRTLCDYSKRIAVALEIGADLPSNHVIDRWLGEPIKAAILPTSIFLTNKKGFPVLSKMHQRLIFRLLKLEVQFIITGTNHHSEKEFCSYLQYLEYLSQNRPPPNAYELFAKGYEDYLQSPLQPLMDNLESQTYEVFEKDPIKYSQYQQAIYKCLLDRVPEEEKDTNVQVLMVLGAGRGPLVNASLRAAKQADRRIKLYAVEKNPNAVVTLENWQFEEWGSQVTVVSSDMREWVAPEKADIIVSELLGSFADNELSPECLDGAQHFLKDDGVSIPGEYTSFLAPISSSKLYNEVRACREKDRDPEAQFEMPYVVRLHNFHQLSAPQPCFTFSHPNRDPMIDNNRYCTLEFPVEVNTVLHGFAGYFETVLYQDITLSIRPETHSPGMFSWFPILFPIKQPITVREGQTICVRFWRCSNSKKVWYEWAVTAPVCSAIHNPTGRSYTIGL
T2 sequence (Q9BQA1 whole entry partner): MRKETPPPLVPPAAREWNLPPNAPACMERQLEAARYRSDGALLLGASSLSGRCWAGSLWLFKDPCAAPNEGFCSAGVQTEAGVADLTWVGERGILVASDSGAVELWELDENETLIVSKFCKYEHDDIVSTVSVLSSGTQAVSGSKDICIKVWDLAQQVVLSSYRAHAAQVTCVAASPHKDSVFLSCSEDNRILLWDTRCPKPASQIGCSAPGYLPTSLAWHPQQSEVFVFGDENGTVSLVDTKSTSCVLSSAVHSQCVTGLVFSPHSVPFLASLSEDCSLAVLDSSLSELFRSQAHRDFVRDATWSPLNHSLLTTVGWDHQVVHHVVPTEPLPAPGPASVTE
PRMT5/MEP50, sequence (O14744 whole entry): as the sequence (O14744 whole entry) above
PRMT5/MEP50, sequence (Q9BQA1 whole entry partner): as the sequence (Q9BQA1 whole entry partner) above

PRMT5 activity inhibition (PRMT5/MEP50): successfully inhibited PRMT5 function
Compound: O=C(CCCC(=O)N[C@@H](Cc1ccccc1)C(=O)N1C/C(=C\c2ccc(Cl)c(Cl)c2)C(=O)/C(=C/c2ccc(Cl)c(Cl)c2)C1)NCCCC(=O)N1CC(Nc2cc(C(=O)NC[C@H](O)CN3CCc4ccccc4C3)ncn2)C1 [Compound 1, N1-((S)-1-(3,5-bis((E)-3,4-dichlorobenzylidene)-4-oxopiperidin-1-yl)-1-oxo-3-phenylpropan-2-yl)-N5-(4-(3-((6-(((S)-3-(3,4-dihydroisoquinolin-2(1H)-yl)-2-hydroxypropyl)carbamoyl)pyrimidin-4-yl)amino)azetidin-1-yl)-4-oxobutyl)glutaramide]
inhibition of cell growth (proliferation) (A427 cells): effectively inhibited growth
inhibition of cell growth (proliferation) (H661 cells): effectively inhibited growth

Compound: O=C(CNc1cc(C(=O)NC[C@H](O)CN2CCc3ccccc3C2)ncn1)NCCCCCCC(=O)N[C@@H](Cc1ccccc1)C(=O)N1C/C(=C\c2ccc([N+](=O)[O-])cc2)C(=O)/C(=C/c2ccc([N+](=O)[O-])cc2)C1 [Compound 13, 6-((2-((7-(((S)-1-(3,5-bis((E)-4-nitrobenzylidene)-4-oxopiperidin-1-yl)-1-oxo-3-phenylpropan-2-yl)amino)-7-oxoheptyl)amino)-2-oxoethyl)amino)-N-((S)-3-(3,4-dihydroisoquinolin-2(1H)-yl)-2-hydroxypropyl)pyrimidine-4-carboxamide]
degradation of blotted targets (HL60 cells; 24 and 48 hours): minimum degradation
concentration tolerated in the cell (HL60 cells): up to 10 μM

concentration resulting in degradation of RPN13 (RPN13): 1 µM
concentration with complete loss of RPN13 (RPN13): 3 µM
concentration resulting in degradation of PRMT5 (PRMT5): 1 µM
concentration with complete loss of PRMT5 (PRMT5): 3 µM
Compound: O=C(CCCC(=O)N1CCC(Nc2cc(C(=O)NC[C@@H](O)CN3CCc4ccccc4C3)ncn2)CC1)N[C@@H](Cc1ccccc1)C(=O)N1C/C(=C\c2ccc(Cl)c(Cl)c2)C(=O)/C(=C/c2ccc(Cl)c(Cl)c2)C1 [Compound 14, 6-((1-(5-(((S)-1-(3,5-bis((E)-3,4-dichlorobenzylidene)-4-oxopiperidin-1-yl)-1-oxo-3-phenylpropan-2-yl)amino)-5-oxopentanoyl)piperidin-4-yl)amino)-N-((R)-3-(3,4-dihydroisoquinolin-2(1H)-yl)-2-hydroxypropyl)pyrimidine-4-carboxamide]
